Data published in ChEMBL document CHEMBL1201862, “PubChem BioAssay data set” (2004).
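Each compound was tested at five concentrations against cells in 96-well plates for 48 hours. The concentration for 50% growth inhibition is given as GI50.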 Activity calls are given as the source filed them. Rule as the data show it: active = GI50 up to about 1.1 µM and inactive = higher.

Key:
Experiment in all cases: NCI tumour cell line growth inhibition, 48 h
TK-10 = system: TK-10
EKVX = system: EKVX
SNB-75 = system: SNB-75
Malme-3M = system: Malme-3M
LXFL 529 = system: LXFL 529
COLO 205 = system: COLO 205
NCI-H460 = system: NCI-H460
LOX IMVI = system: LOX IMVI
UACC-62 = system: UACC-62
SF-295 = system: SF-295
SF-268 = system: SF-268
A549 = system: A549
SN12C = system: SN12C
MOLT-4 = system: MOLT-4
SF-539 = system: SF-539
SW-620 = system: SW-620
RPMI-8226 = system: RPMI-8226
SK-OV-3 = system: SK-OV-3
MDA-N = system: MDA-N
HCC 2998 = system: HCC 2998

Measured: GI50

C=CCNC(=S)N1c2ccccc2NC(=O)CC1C (centres undefined)
inactive: TK-10 > 100 µM | EKVX > 100 µM | SNB-75 54.6 µM | Malme-3M > 100 µM | LXFL 529 > 100 µM | COLO 205 > 100 µM | NCI-H460 > 100 µM | LOX IMVI > 100 µM | UACC-62 > 100 µM | SF-295 > 100 µM | SF-268 > 100 µM | A549 > 100 µM | SN12C > 100 µM | MOLT-4 > 100 µM | SF-539 > 100 µM | SW-620 > 100 µM | RPMI-8226 > 100 µM

O=c1cccccc1NCCCCCCCNc1cccccc1=O
inactive: EKVX 20.4 µM | SNB-75 95.9 µM | Malme-3M 29.2 µM | LXFL 529 16.9 µM | COLO 205 40.1 µM | NCI-H460 29.7 µM | LOX IMVI 12.1 µM | UACC-62 19.4 µM | SF-295 34 µM | SF-268 43.5 µM | A549 21.8 µM | SN12C 49.3 µM | MOLT-4 17 µM | SF-539 91.4 µM | SW-620 52 µM | RPMI-8226 13.8 µM | SK-OV-3 42.6 µM

CSc1nc(SC)c2c(C)cn(COCCOC(=O)c3ccccc3)c2n1
inactive: TK-10 > 100 µM | EKVX > 100 µM | SNB-75 50.2 µM | Malme-3M > 100 µM | MDA-N > 100 µM | COLO 205 > 100 µM | NCI-H460 88.5 µM | LOX IMVI 58.2 µM | UACC-62 > 100 µM | SF-295 > 100 µM | SF-268 > 100 µM | A549 > 100 µM | SN12C > 100 µM | MOLT-4 59.6 µM | SF-539 27.3 µM | SW-620 > 100 µM | HCC 2998 > 100 µM | RPMI-8226 69.5 µM | SK-OV-3 24.3 µM

CC(C)C[S+]1C2=C(CC(C)(C)CC2=O)[N-]c2ccccc21 (centres undefined)
inactive: TK-10 > 100 µM | EKVX > 100 µM | SNB-75 > 100 µM | Malme-3M > 100 µM | MDA-N > 100 µM | COLO 205 > 100 µM | NCI-H460 > 100 µM | LOX IMVI > 100 µM | UACC-62 > 100 µM | SF-295 > 100 µM | SF-268 > 100 µM | A549 > 100 µM | SN12C > 100 µM | MOLT-4 67.8 µM | SF-539 > 100 µM | SW-620 > 100 µM | HCC 2998 > 100 µM | RPMI-8226 > 100 µM | SK-OV-3 > 100 µM

CCC(=O)/C=C/c1ccccc1
inactive: TK-10 > 100 µM | EKVX > 100 µM | SNB-75 > 100 µM | Malme-3M > 100 µM | MDA-N 40.6 µM | COLO 205 > 100 µM | NCI-H460 70.3 µM | LOX IMVI 22.8 µM | UACC-62 37 µM | SF-295 73.5 µM | SF-268 94 µM | A549 > 100 µM | SN12C 43.2 µM | MOLT-4 26 µM | SF-539 53 µM | SW-620 32.5 µM | HCC 2998 63.1 µM | RPMI-8226 54.3 µM | SK-OV-3 31.3 µM

Oc1ccc(SCc2cc(O)ccc2O)cc1
inactive: TK-10 18.4 µM | EKVX 18.9 µM | SNB-75 20.9 µM | Malme-3M 19.5 µM | MDA-N 14.4 µM | COLO 205 19.2 µM | NCI-H460 28.9 µM | LOX IMVI 16.6 µM | UACC-62 17.1 µM | SF-295 15.6 µM | SF-268 9.04 µM | A549 41.3 µM | SN12C 10.2 µM | MOLT-4 3.86 µM | SF-539 3.54 µM | SW-620 19.1 µM | HCC 2998 22.8 µM | RPMI-8226 2.67 µM | SK-OV-3 30.2 µM

CCOP(=O)(OCC)/C(C#N)=C/c1cccn1C
inactive: TK-10 > 100 µM | EKVX > 100 µM | SNB-75 > 100 µM | Malme-3M > 100 µM | MDA-N > 100 µM | COLO 205 > 100 µM | NCI-H460 > 100 µM | LOX IMVI > 100 µM | UACC-62 > 100 µM | SF-295 > 100 µM | SF-268 > 100 µM | A549 > 100 µM | SN12C > 100 µM | MOLT-4 > 100 µM | SF-539 > 100 µM | SW-620 > 100 µM | HCC 2998 > 100 µM | RPMI-8226 > 100 µM | SK-OV-3 > 100 µM

CC1(C)S[C@@H]2[C@H](NC(=O)C3(N)CCCCC3)C(=O)N2[C@H]1C(=O)O [CYCLACILLIN]
inactive: TK-10 > 100 µM | EKVX > 100 µM | SNB-75 > 100 µM | Malme-3M > 100 µM | MDA-N > 100 µM | COLO 205 > 100 µM | NCI-H460 > 100 µM | LOX IMVI > 100 µM | UACC-62 > 100 µM | SF-295 > 100 µM | SF-268 > 100 µM | A549 > 100 µM | SN12C > 100 µM | MOLT-4 > 100 µM | SF-539 > 100 µM | SW-620 > 100 µM | HCC 2998 > 100 µM | RPMI-8226 > 100 µM | SK-OV-3 > 100 µM

O=S(=O)(Nc1nc2ccccc2nc1Nc1ccc2ccccc2c1)c1ccccc1
inactive: TK-10 27.1 µM | EKVX 11.7 µM | SNB-75 26.5 µM | Malme-3M 4.53 µM | MDA-N 19.5 µM | COLO 205 12.4 µM | NCI-H460 7.53 µM | LOX IMVI 17.8 µM | UACC-62 4.67 µM | SF-295 5.07 µM | SF-268 17.9 µM | A549 5.96 µM | SN12C 10.4 µM | MOLT-4 5.24 µM | SF-539 15.3 µM | SW-620 7.38 µM | HCC 2998 7.1 µM | RPMI-8226 2.44 µM | SK-OV-3 7.78 µM

O=C1c2ccccc2C(=O)N1CC1S(=O)(=O)OCCOS1(=O)=O
inactive: TK-10 > 100 µM | EKVX > 100 µM | SNB-75 > 100 µM | Malme-3M > 100 µM | MDA-N > 100 µM | COLO 205 > 100 µM | NCI-H460 > 100 µM | LOX IMVI > 100 µM | UACC-62 > 100 µM | SF-295 > 100 µM | SF-268 > 100 µM | A549 > 100 µM | SN12C > 100 µM | MOLT-4 > 100 µM | SF-539 98.4 µM | SW-620 > 100 µM | HCC 2998 > 100 µM | RPMI-8226 > 100 µM | SK-OV-3 > 100 µM

CC(C)c1cccc(C(C)C)c1NC(=O)C(=O)C1SC(=S)NC1=O (centres undefined)
inactive: TK-10 > 100 µM | EKVX > 100 µM | SNB-75 > 100 µM | Malme-3M > 100 µM | LXFL 529 > 100 µM | COLO 205 > 100 µM | NCI-H460 > 100 µM | LOX IMVI > 100 µM | UACC-62 > 100 µM | SF-295 > 100 µM | SF-268 > 100 µM | A549 > 100 µM | SN12C > 100 µM | MOLT-4 > 100 µM | SF-539 > 100 µM | SW-620 > 100 µM | RPMI-8226 > 100 µM | SK-OV-3 > 100 µM
